Measurements taken from ChEMBL document CHEMBL1146432, “Bengamides and Related New Amino Acid Derivatives from the New Caledonian Marine Sponge Jaspis carteri” (J Nat Prod, 1997).
The source made the active and inactive calls. The calls are words filed in the database; no cut-off is given here.

Test system: Candida
Assay: Antifungal activity against Candida at 100 ug/mL
Format: functional, organism-based

| SMILES | Activity |
| --- | --- |
| CCCCCCCCCCCCCCC(=O)O[C@H]1CC[C@H](NC(=O)[C@H](OC)[C@H](O)[C@@H](O)[C@H](O)/C=C/C(C)C)C(=O)N(C)C1 | inactive |
| CCCCCCCCCCCCCC(=O)O[C@H]1CC[C@H](NC(=O)[C@H](OC)[C@H](O)[C@@H](O)[C@H](O)/C=C/C(C)C)C(=O)N(C)C1 | inactive |
| CCCCCCCCCCCCCCC(=O)O[C@H]1CC[C@H](NC(=O)[C@H](OC)[C@H](O)[C@@H](O)[C@H](O)/C=C/C(C)C)C(=O)NC1 | inactive |
| CCCCCCCCCCCCC(=O)O[C@H]1CC[C@H](NC(=O)[C@H](OC)[C@H](O)[C@@H](O)[C@H](O)/C=C/C(C)C)C(=O)NC1 | inactive |
| CCCCCCCCCCCCCC(=O)O[C@H]1CC[C@H](NC(=O)[C@H](OC)[C@H](O)[C@@H](O)[C@H](O)/C=C/C(C)C)C(=O)NC1 | inactive |
| CO[C@H]1C(=O)O[C@@H]([C@H](O)/C=C/C(C)C)[C@H]1O | inactive |
| CCCCCCCCCCCCCC(=O)O[C@H]1CC[C@H](NC=O)C(=O)N(C)C1 | inactive |
| CCCCCCCCCCCCC(=O)O[C@H]1CC[C@H](NC(=O)[C@H](OC)[C@H](O)[C@@H](O)[C@H](O)/C=C/C(C)C)C(=O)N(C)C1 | inactive |
